For one experiment, the system named is S. aureus USA100 biofilm. Put plainly: Biofilm inhibition, crystal violet assay. It is filed as cell-based. Conditions: Staphylococcus aureus, S. aureus USA100 (MRSA), 30 h. Here is the method: (§1) A standard static crystal violet assay was used to quantify biofilm inhibition.^45 Cultures of S. aureus or S. epidermidis were grown overnight in TSBG (tryptic soy broth with 5% glucose) at 37° C. with shaking. These cultures were used to inoculate fresh TSBG to a calculated optical density of 0.01 at 600 nm (OD600). […] Untreated aliquots were used as a positive control and water served as a negative control. 100 μl of these suspensions were added to the wells of a 96-well polyvinylchloride microtiter plate. […] After incubation, media was discarded and the plates were washed with water to remove non-adherent cells. Adherent biofilms were stained with 110 μl of crystal violet (0.1% in water) and incubated at room temperature for thirty minutes. The crystal violet staining solution was discarded and plates were washed with water to remove excess stain. The resulting stained biofilms were solubilized with 200 μL of 95% ethanol for 10 minutes. 125 μl of the ethanol solutions were transferred to a clear polystyrene microtiter plate for evaluation. Absorbance at 540 nm was recorded using a BioTek Synergy H1 microplate reader. The absorbance of the negative control lanes was subtracted from the experimental values to account for background staining. Percent inhibition was calculated by comparison of the absorbance values of control versus treated wells under identical conditions.
(§2) Antibiotic resistance and biofilm formation share similar regulatory mechanisms. […] Biofilm inhibition was first assessed in S. aureus 43300, a methicillin-resistant strain (see Table 18). As described in Materials and Methods, a standard crystal violet assay was used to assess biofilm inhibition by the tested compounds. The IC50 is described as the compound concentration required to inhibit 50% of biofilm formation. The standard deviation is calculated from at least 3 independent experiments.
(§3) The biofilm inhibition activity of loratadine was further explored in other strains of S. aureus. Loratadine was capable of inhibiting biofilm formation in all tested strains of S. aureus, including methicillin-resistant and vancomycin-resistant strains.

In another experiment the test system is S. aureus USA300 biofilm. In words: Biofilm inhibition, crystal violet assay. It counts as cell-based. Conditions: Staphylococcus aureus, S. aureus USA300 (MRSA), 30 h. As to the method:
as §1, §2, §3

In the next experiment the test system is S. aureus 29213 biofilm. Put plainly: Biofilm inhibition, crystal violet assay. It is filed as cell-based. Particulars: Staphylococcus aureus, 30 h. As to the method:
as §1, §2, §3

In experiment [1] the test system is S. aureus NR-49120 biofilm. In words: Biofilm inhibition, crystal violet assay. It is filed as cell-based. Conditions: Staphylococcus aureus, NR49120BIOFILM, S. aureus NR-49120 (methicillin and vancomycin resistant), 30 h. Here is the method:
as §1, §2, §3

In experiment [2] the test system is S. aureus NR-50109 biofilm. In words: Biofilm inhibition, crystal violet assay. It is filed as cell-based. Conditions: Staphylococcus aureus, NR50109BIOFILM, S. aureus NR-50109 (methicillin and vancomycin resistant), 30 h. Here is the method:
as §1, §2, §3

Another experiment concerns S. aureus 43300 (MRSA). In words: Antibiotic repotentiation (antibiotic MIC with/without compound). It is filed as cell-based, Staphylococcus aureus. Particulars: +50 μM compound.
The subject of the next experiment is S. aureus USA300 (MRSA). The experiment is described as above. It counts as cell-based, Staphylococcus aureus. Particulars: +50 μM compound, S. aureus USA300 (MRSA).
A further experiment concerns S. aureus ATCC 29213. Put plainly: Minimum inhibitory concentration, broth microdilution. It is filed as cell-based. Particulars: Staphylococcus aureus, ATCC29213; compound alone; S. aureus ATCC 29213; CAMHB, 18 h; read-out: MIC. As to the method: The compounds were then analyzed for antibiotic repotentiation activity. […] The tested strains included USA300, which is a common and particularly virulent strain of community-acquired MRSA.
(Broth dilution looks for growth in wells or tubes with falling amounts of substance.)

Molecules are shown by their SMILES. Where only a bound is given, the exact number is not on record here.

The IC50 is the point on the concentration scale where inhibition reaches its midpoint. As a reminder, the MIC is the least concentration at which growth counts as inhibited.

For the molecule `CCOC(=O)N1CCC(=C2c3ccc(Cl)cc3CCc3cccnc32)CC1` [Loratadine, ethyl 4-(8-chloro-5,6-dihydrobenzo[1,2]cyclohepta[2,4-b]pyridin-11-ylidene)piperidine-1-carboxylate], the IC50 in the experiment on S. aureus USA100 biofilm turned out to be 22.2 ± 6.51 µM; in the experiment on S. aureus USA300 biofilm, 32.8 ± 5.9 µM; in the experiment on S. aureus 29213 biofilm, 25.9 ± 2.36 µM; in experiment [1], 59.9 ± 1.29 µM; in experiment [2], 19.1 ± 2.87 µM. In addition, the “Oxacillin MIC” value turned out to be 1 µg/mL in the experiment with S. aureus 43300 (MRSA) (S. aureus ATCC 43300 (MRSA)) and 0.5 µg/mL with S. aureus USA300 (MRSA). For the same molecule, the “Fold Reduction” value in the experiment on S. aureus 43300 (MRSA) (oxacillin MIC, S. aureus 43300 (MRSA)) is 32; in the experiment with S. aureus USA300 (MRSA) (oxacillin MIC), 64. The MIC in the experiment on S. aureus ATCC 29213 was greater than 200 µM.

Source of the values: US12115208B2, “Small-molecule adjuvants for antibiotics to address antibiotic resistance” (HIGH POINT UNIVERSITY, priority 2017, dated 2024).
